From patent publication US20040122065A1 (priority 2002, published 2004) come the findings set out here.

Structures are written as SMILES.

The nature of the data set: Pharmacokinetic crossover trial: 2 mg sublingual tablet vs 4 mg commercial oral tizanidine (Zanaflex), plasma tizanidine by HPLC. It counts as in vivo. To be noted: human. As for the experimental part: Two groups were randomized and there was a one week washout period between administrations. The volunteers were in the fasted state when the drugs were administered. The sublingual tablets were placed under the tongue for 5 minutes and tablet remnants, if any, were swallowed. The oral formulation was administered with a glass of water. Blood samples were taken at 0, 0.5, 1.0, 1.5, 2.0, 2.5, 3.0, 4.0, 5.0, 6.0 and 7.0 hours after administration. […] The samples were blinded from the analysts.

For `Clc1ccc2nsnc2c1NC1=NCCN1` [Tizanidine, 5-Chloro-N-(4,5-dihydro-1H-imidazol-2-yl)-2,1,3-benzothiadiazol-4-amine], the concentration at 0 h is less than 98.4 ng/g (other: sublingual, 2 mg, Plasma Tizanidine Levels, sublingual delivery of 2 mg tizanidine (sublingual tablet), fasted, 0 h after dosing, one column per test subject) and less than 98.4 ng/g (po, 4 mg).
